Test results from patent US10813931B2, “Methods and compositions relating to the treatment of cancer” (THE BRIGHAM AND WOMEN'S HOSPITAL, INC., priority 2013, dated 2020).

Experiments:
MDA-MB-231 (231) = assay: CD44 surface expression by FACS in 231 cells; assay type: cell-based, human; settings: 4 hours post treatment, increasing doses
Method: MDA-MB-231, MDA-MB-468 were purchased from ATCC. For acute treatments, cells were plated at a density of 0.5-1×10^5 cells/ml and allowed to adhere for 24-48 hr. when cells reached ˜70% confluency they were treated with antitubulins at indicated concentrations for 4-24 hours and utilized for subsequent assays. To generate chemotherapy tolerant subset, cells were treated with indicated concentrations of chemotherapy (48). Following washes with PBS, adherent cells were trypsinized and re-plated at a density of 1.5-2×10^5 cells/ml and cultured in serum-containing medium. […]
Cells were cultured as indicated and fixed with 4% paraformaldehyde in PBS for 30 min at RT and blocked in 10% goat serum (v/v). Following PBS washes, cells were incubated with indicated antibodies for 60 minutes at room temperature or overnight at 4 C and analyzed by FACS (Accuri cyomteters Inc. Ann Arbor, Mich.). Cell cycle analyzed in propidium iodide solution following incubation in 70% Ethanol overnight at 4 C and following manufacturer protocol (Genscript USA Inc. Piscataway, N.J.). AnnexinV/PI was analyzed FACS following manufacturer protocol (BD, Ann Arbor Mich.). All FACS results were analyzed by FlowJo™ software following a rigorous doublet discrimination based on FSC:A vs. width as well as FSC:A vs. height (Tree Star Inc., Ashland Oreg.). […]

[1] = system: CD44, Src (Y527), PRAS40 T246, Hck; assay: 4T-1 tumor tissue western blot / IHC of CD44 and kinase phosphorylation; assay type: in vivo, mouse; settings: diminished by day 19
Method: 4-6 week old Balb/C mice (Charles River, Cambridge Mass.) were inoculated with 10^6 4 T-1 mouse mammary carcinoma cells in the left flank (Charles River, Cambridge Mass.). Mice identified with tumors were treated with docetaxel (DTX) or vehicle twice at 72 hour intervals at 10 mg/kg i.v. or 15 mg/kg i.p. and subsequently treated with dasatinib i.p. or nanoparticles i.v. 72 hours following the final DTX dose. Tumors were harvested at indicated time points and evaluated for protein phosphorylation and expression. Experimental detail provided in supplemental data.
1 million 4T-1 mouse mammary carcinoma cells suspended in 100 µL PBS were injected per left flank of 5-6 week old Balb/C (Charles River, Wilmington Mass.). DTX was dissolved in pure Ethanol at a concentration of 50 mg/ml mixed 1:1 with Polysorbate 80 (Tween 80) and brought to a final working concentration with 5% glucose in PBS. Once Tumors became palpable (˜100 mm^3), DTX or vehicle treatments were administered at 100 μL volumes. Dasatinib was dissolved in DMSO to working concentration and delivered as 50 μL injections on indicated days, 50 µL DMSO used as a control in these studies. Tumor volumes were measured by a third party unaware of treatment conditions using digital calipers (Starlett, Athol, Mass.), volumes were assessed by the following formula: (Width×Width×length)/2 and expressed as relative volume increase from day 1. Tumor homogenate was prepared by homogenization of equal weight tissue sections incubated in 3×RIPA buffer containing 2× protease/phosphatase inhibitor cocktail (Thermo Fisher, Waltham, Mass.).
Cells were generated as described above and plated in 4 chamber glass slides (BD Biosciences, San Jose Calif.) at a concentration of 100,000 cells/ml. Following treatments, cells were washed in PBS and fixed in 4% Paraformaldehyde for 30 minutes. […] Blocking was performed in 10% (v/v) Goat serum in PBS. The cells were labeled with the indicated primary antibodies at 1:100 and tagged with FITC or unconjugated followed by a secondary antibody conjugated with Alexa Fluor 488 or Alexa Fluor 594 (Invitrogen Carlsbad Calif.) at 1:250 were added 24 hours later and incubated for 90 minutes at room temperature in blocking buffer and masked with DAPI-containing hard-set mounting medium (Vector Laboratories, Burlingame Calif.). Bright field and fluorescent images were obtained using three channels on a NIKON Eclipse TI-U microscope with a 20×ELDW, 10× or 40× Plan-Apo objective lens (Nikon, Melville N.Y.). […] For histological quantification, IHC were scored blindly by a clinical pathologist based on number of cells which stain for the target protein (1-4) and multiplied by the intensity of staining as a subjective percentile. This value was expressed as IHC score to quantify the level of staining. […]

Q: For `CC(=O)O[C@@]12CO[C@@H]1C[C@H](O)[C@@]1(C)C(=O)[C@H](O)C3=C(C)[C@@H](OC(=O)[C@H](O)[C@@H](NC(=O)OC(C)(C)C)c4ccccc4)C[C@@](O)([C@@H](OC(=O)c4ccccc4)[C@H]21)C3(C)C` [DTX, docetaxel], which CD44 induction (MDA-MB-231 (231)) is on record?
A: The CD44 induction was “dose-dependent manner”.

Q: What about the “Hck phosphorylation in tumor (IHC)” value ([1]; DTX day 9 vs control) of the same compound?
A: Its value is “markedly enhanced”.

Q: What about the “activated PRAS40 T246 in tumor” value ([1]; DTX day 9 vs control) of the same compound?
A: The value was “enhancement”.

Q: And the “inhibitory residue of Src (Y527) phosphorylation in tumor” value ([1]; DTX day 9 vs control)?
A: The value was “Reduction”.

Q: And the “CD44 expression in tumor tissue” value ([1]; DTX-treated day 9 vs control day 9)?
A: The value was “significantly enhanced CD44 expression”.
